How the values were obtained:
[1] = system: Echinochloa oryzacola Vasing.; assay: Test Example 2: herbicidal activity, application during weed generation in submerged conditions (symbol A); assay type: in vivo; conditions: Table 23; application herbicide amount 320 g/ha; grade 0-5 by criteria of Test Example 1
Summary of the method: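 Alluvial soil in pots was flooded to a 4 cm water depth and sown with a mix of the three weed species, then grown in a greenhouse at 25° C. to 30° C. At the one- to two-leaf stage, an emulsifiable formulation diluted in water to a set dose was applied to the water surface. Effects were scored visually 3 weeks later.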

Amaranthus retroflexus = assay: Test Example 4: herbicidal effect by soil treatment (symbol N); assay type: in vivo; conditions: application herbicide amount 320 g/ha
Summary of the method: (§1)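 Seeds were sown in sterilized diluvial soil, covered with about 1.5 cm of soil, and the soil surface was sprayed with a water-diluted emulsion of the compound at a predetermined rate. Plants grew in a greenhouse at 25° C. to 30° C.; effects were scored visually 3 weeks after application.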

Monochoria vaginalis = assay: Test Example 1: herbicidal activity, application before weed generation in submerged conditions (symbol C); assay type: in vivo; conditions: application herbicide amount 320 g/ha
Summary of the method: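 Pre-emergence, paddy conditions: emulsifiable formulation diluted in water, dosed onto floodwater (4 cm depth) on sowing day. Alluvial soil; weeds sown mixed; rice transplanted at 2.5-leaf stage. Greenhouse 25–30 °C, 3 wk. Score 0–5 (5 = ≥90% kill, 0 = ≤5%).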

Apera spica-venti = assay: Test Example 4: herbicidal effect by soil treatment (symbol L); assay type: in vivo; conditions: application herbicide amount 320 g/ha
Summary of the method: as §1

rice plant = assay: Test Example 5: effect on crop by foliage application, plastic box (symbol b); assay type: in vivo; conditions: 320 g/ha, 3 weeks after application
Summary of the method: (§2)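 Seeds were sown in spots in sterilized diluvial soil held in a plastic box 21 cm × 13 cm × 7 cm deep, covered with about 1.5 cm of soil, and grown in a greenhouse at 25° C. to 30° C.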

Avena fatua = assay: Test Example 5: herbicidal effect by foliage application, plastic box (symbol I); assay type: in vivo; conditions: 320 g/ha, 3 weeks after application
Summary of the method: (§3)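 Greenhouse foliar test: seedlings at 14 days, grown 25° C. to 30° C. in sterilized diluvial soil; compound applied as an aqueous dilution of an emulsion; response read 3 weeks after spraying.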

Setaria viridis [2] = assay: Test Example 5: herbicidal effect by foliage application, plastic box (symbol G); assay type: in vivo; conditions: 320 g/ha, 3 weeks after application
Summary of the method: as §3

Setaria viridis [3] = assay: Test Example 4: herbicidal effect by soil treatment (symbol G); assay type: in vivo; conditions: application herbicide amount 320 g/ha
Summary of the method: as §1

beet = assay: Test Example 5: effect on crop by foliage application, plastic box (symbol f); assay type: in vivo; conditions: 320 g/ha, 3 weeks after application
Summary of the method: as §2

Chenopodium album [4] = assay: Test Example 5: herbicidal effect by foliage application, plastic box (symbol O); assay type: in vivo; conditions: 320 g/ha, 3 weeks after application
Summary of the method: as §3

Stellaria media = assay: Test Example 4: herbicidal effect by soil treatment (symbol P); assay type: in vivo; conditions: application herbicide amount 320 g/ha
Summary of the method: as §1

Chenopodium album [5] = assay: Test Example 4: herbicidal effect by soil treatment (symbol O); assay type: in vivo; conditions: application herbicide amount 320 g/ha
Summary of the method: as §1

Veronica persica = assay: Test Example 4: herbicidal effect by soil treatment (symbol R); assay type: in vivo; conditions: application herbicide amount 320 g/ha
Summary of the method: as §1

| Compound | Herbicidal effect grade, A: Echinochloa oryzacola Vasing. [1] | N (Amaranthus retroflexus) herbicidal effect grade (Amaranthus retroflexus) | Herbicidal effect grade, C: Monochoria vaginalis (Monochoria vaginalis) | L (Apera spica-venti) herbicidal effect grade (Apera spica-venti) | b: directly sowed rice plant, effect on crop grade (rice plant) | I: Avena fatua, herbicidal effect grade (Avena fatua) | G: Setaria viridis, herbicidal effect grade (Setaria viridis [2]) | G (Setaria viridis) herbicidal effect grade (Setaria viridis [3]) | f: beet, effect on crop grade (beet) | O: Chenopodium album, herbicidal effect grade (Chenopodium album [4]) | melting point | P (Stellaria media) herbicidal effect grade (Stellaria media) | O (Chenopodium album) herbicidal effect grade (Chenopodium album [5]) | R (Veronica persica) herbicidal effect grade (Veronica persica) |
| --- | --- | --- | --- | --- | --- | --- | --- | --- | --- | --- | --- | --- | --- | --- |
| CC(CC1CC(O)=C(c2c(C)cc(C)cc2C)C1=O)=NOCC(F)(F)F (centres unmarked) [1-028] | 5 (Herbicidal ratio of 90% or more (almost completely withered)) | 3 (Herbicidal ratio of 40% or higher and lower than 70%) | 1 (Herbicidal ratio of 5% or higher and lower than 20%) | 5 (Herbicidal ratio of 90% or more (almost completely withered)) | 5 (Herbicidal ratio of 90% or more (almost completely withered)) | 4 (Herbicidal ratio of 70% or higher and lower than 90%) | 5 (Herbicidal ratio of 90% or more (almost completely withered)) | 5 (Herbicidal ratio of 90% or more (almost completely withered)) | 0 (Herbicidal ratio of 5% or lower (almost no effect)) | 3 (Herbicidal ratio of 40% or higher and lower than 70%) | 172 to 174 °C |  |  |  |
| CON=CCC1CC(O)=C(c2c(C)cc(C)cc2C)C1=O (centres unmarked) [1-050] | 3 (Herbicidal ratio of 40% or higher and lower than 70%) | 0 (Herbicidal ratio of 5% or lower (almost no effect)) | 3 (Herbicidal ratio of 40% or higher and lower than 70%) | 0 (Herbicidal ratio of 5% or lower (almost no effect)) | 5 (Herbicidal ratio of 90% or more (almost completely withered)) | 3 (Herbicidal ratio of 40% or higher and lower than 70%) | 5 (Herbicidal ratio of 90% or more (almost completely withered)) | 4 (Herbicidal ratio of 70% or higher and lower than 90%) | 0 (Herbicidal ratio of 5% or lower (almost no effect)) | 0 (Herbicidal ratio of 5% or lower (almost no effect)) | 96 to 108 °C | 0 (Herbicidal ratio of 5% or lower (almost no effect)) | 0 (Herbicidal ratio of 5% or lower (almost no effect)) |  |
| CC(CC1CC(O)=C(c2c(C)cc(C)cc2C)C1=O)=NOC(C)C (centres unmarked) [1-052] | 5 (Herbicidal ratio of 90% or more (almost completely withered)) | 3 (Herbicidal ratio of 40% or higher and lower than 70%) | 0 (Herbicidal ratio of 5% or lower (almost no effect)) | 5 (Herbicidal ratio of 90% or more (almost completely withered)) | 5 (Herbicidal ratio of 90% or more (almost completely withered)) | 5 (Herbicidal ratio of 90% or more (almost completely withered)) | 5 (Herbicidal ratio of 90% or more (almost completely withered)) | 5 (Herbicidal ratio of 90% or more (almost completely withered)) | 0 (Herbicidal ratio of 5% or lower (almost no effect)) | 1 (Herbicidal ratio of 5% or higher and lower than 20%) | 93 to 95 °C | 0 (Herbicidal ratio of 5% or lower (almost no effect)) | 0 (Herbicidal ratio of 5% or lower (almost no effect)) | 0 (Herbicidal ratio of 5% or lower (almost no effect)) |
| CC(CC1CC(O)=C(c2c(C)cc(C)cc2C)C1=O)=NOC(C)(C)C (centres unmarked) [1-053] | 4 (Herbicidal ratio of 70% or higher and lower than 90%) | 0 (Herbicidal ratio of 5% or lower (almost no effect)) | 0 (Herbicidal ratio of 5% or lower (almost no effect)) | 3 (Herbicidal ratio of 40% or higher and lower than 70%) | 5 (Herbicidal ratio of 90% or more (almost completely withered)) | 2 (Herbicidal ratio of 20% or higher and lower than 40%) | 3 (Herbicidal ratio of 40% or higher and lower than 70%) | 4 (Herbicidal ratio of 70% or higher and lower than 90%) | 0 (Herbicidal ratio of 5% or lower (almost no effect)) | 1 (Herbicidal ratio of 5% or higher and lower than 20%) | 145 to 147 °C | 0 (Herbicidal ratio of 5% or lower (almost no effect)) | 0 (Herbicidal ratio of 5% or lower (almost no effect)) | 0 (Herbicidal ratio of 5% or lower (almost no effect)) |
| CC(CC1CC(O)=C(c2c(C)cc(C)cc2C)C1=O)=NOc1ccccc1 (centres unmarked) [1-057] | 2 (Herbicidal ratio of 20% or higher and lower than 40%) | 1 (Herbicidal ratio of 5% or higher and lower than 20%) | 2 (Herbicidal ratio of 20% or higher and lower than 40%) | 4 (Herbicidal ratio of 70% or higher and lower than 90%) | 3 (Herbicidal ratio of 40% or higher and lower than 70%) | 2 (Herbicidal ratio of 20% or higher and lower than 40%) | 3 (Herbicidal ratio of 40% or higher and lower than 70%) | 4 (Herbicidal ratio of 70% or higher and lower than 90%) | 1 (Herbicidal ratio of 5% or higher and lower than 20%) | 0 (Herbicidal ratio of 5% or lower (almost no effect)) | 149 to 151 °C | 0 (Herbicidal ratio of 5% or lower (almost no effect)) |  | 0 (Herbicidal ratio of 5% or lower (almost no effect)) |
| CON=C(CC1CC(O)=C(c2c(C)cc(C)cc2C)C1=O)C(C)(C)C (centres unmarked) [1-059] | 4 (Herbicidal ratio of 70% or higher and lower than 90%) | 0 (Herbicidal ratio of 5% or lower (almost no effect)) | 2 (Herbicidal ratio of 20% or higher and lower than 40%) | 5 (Herbicidal ratio of 90% or more (almost completely withered)) | 4 (Herbicidal ratio of 70% or higher and lower than 90%) | 4 (Herbicidal ratio of 70% or higher and lower than 90%) | 4 (Herbicidal ratio of 70% or higher and lower than 90%) | 4 (Herbicidal ratio of 70% or higher and lower than 90%) | 0 (Herbicidal ratio of 5% or lower (almost no effect)) | 0 (Herbicidal ratio of 5% or lower (almost no effect)) | 163 to 164 °C | 0 (Herbicidal ratio of 5% or lower (almost no effect)) |  |  |
